Assay results taken from the NIST ThermoML archive (doi:10.1016/j.jct.2006.01.012).
Numbers after ± are expanded uncertainties.

Assay: xn = mol fraction of the nth substance listed
Settings: Liquid; for viscosity: Capillary tube (Ostwald / Ubbelohde) method; for mass density: isochoric method

CCCCCCCC [octane] + CCCCCCC
Settings	mass density [kg/m3]	viscosity [mPa·s]
373.19 K, 5000 kPa, x2 = 0.7906	–	0.217 ± 0.007
373.19 K, 10000 kPa, x2 = 0.7906	–	0.23 ± 0.008
373.51 K, 5000 kPa, x2 = 0.2808	–	0.241 ± 0.008
373.51 K, 10000 kPa, x2 = 0.2808	–	0.255 ± 0.008
373.97 K, 5000 kPa, x2 = 0.5427	–	0.227 ± 0.008
373.97 K, 10000 kPa, x2 = 0.5427	–	0.24 ± 0.008
374.79 K, 3256 kPa, x2 = 0.2808	634.7 ± 0.8	–
374.79 K, 8081 kPa, x2 = 0.2808	641.5 ± 0.8	–
374.79 K, 9316 kPa, x2 = 0.2808	643.1 ± 0.8	–
380.43 K, 3110 kPa, x2 = 0.5427	623.5 ± 0.8	–
380.43 K, 5712 kPa, x2 = 0.5427	628.4 ± 0.8	–
380.43 K, 8743 kPa, x2 = 0.5427	633.1 ± 0.8	–
380.43 K, 10230 kPa, x2 = 0.5427	635.1 ± 0.8	–
382.99 K, 5000 kPa, x2 = 0.2808	–	0.223 ± 0.007
382.99 K, 10000 kPa, x2 = 0.2808	–	0.237 ± 0.008
383.18 K, 5000 kPa, x2 = 0.5427	–	0.212 ± 0.007
383.18 K, 10000 kPa, x2 = 0.5427	–	0.224 ± 0.007
384.55 K, 5000 kPa, x2 = 0.7906	–	0.198 ± 0.007
384.55 K, 10000 kPa, x2 = 0.7906	–	0.211 ± 0.007
386.91 K, 3743 kPa, x2 = 0.7906	612.4 ± 0.7	–
386.91 K, 5902 kPa, x2 = 0.7906	616.6 ± 0.8	–
386.91 K, 8793 kPa, x2 = 0.7906	621.6 ± 0.8	–
386.91 K, 10710 kPa, x2 = 0.7906	624.7 ± 0.8	–
393.49 K, 5000 kPa, x2 = 0.2808	–	0.206 ± 0.007
393.49 K, 10000 kPa, x2 = 0.2808	–	0.22 ± 0.007
394.51 K, 5000 kPa, x2 = 0.5427	–	0.195 ± 0.006
394.51 K, 10000 kPa, x2 = 0.5427	–	0.206 ± 0.007
395.52 K, 5000 kPa, x2 = 0.7906	–	0.183 ± 0.006
395.52 K, 10000 kPa, x2 = 0.7906	–	0.195 ± 0.006
401.28 K, 4100 kPa, x2 = 0.7906	601.1 ± 0.7	–
401.28 K, 6833 kPa, x2 = 0.7906	606.2 ± 0.7	–
401.28 K, 9204 kPa, x2 = 0.7906	610.3 ± 0.7	–
401.28 K, 10510 kPa, x2 = 0.7906	612.5 ± 0.7	–
401.4 K, 4751 kPa, x2 = 0.2808	614.2 ± 0.8	–
401.4 K, 7120 kPa, x2 = 0.2808	618 ± 0.8	–
401.4 K, 9310 kPa, x2 = 0.2808	621.7 ± 0.8	–
403.23 K, 5000 kPa, x2 = 0.5427	–	0.183 ± 0.006
403.23 K, 10000 kPa, x2 = 0.5427	–	0.193 ± 0.006
407.72 K, 5000 kPa, x2 = 0.7906	–	0.167 ± 0.006
407.72 K, 10000 kPa, x2 = 0.7906	–	0.18 ± 0.006
409.59 K, 3334 kPa, x2 = 0.5427	598 ± 0.7	–
409.59 K, 7257 kPa, x2 = 0.5427	606.1 ± 0.7	–
409.59 K, 9316 kPa, x2 = 0.5427	609.6 ± 0.7	–
413.6 K, 5000 kPa, x2 = 0.2808	–	0.178 ± 0.006
413.6 K, 10000 kPa, x2 = 0.2808	–	0.191 ± 0.006
415.96 K, 5000 kPa, x2 = 0.5427	–	0.167 ± 0.006
415.96 K, 10000 kPa, x2 = 0.5427	–	0.177 ± 0.006
423.23 K, 3334 kPa, x2 = 0.7906	578.1 ± 0.7	–
423.23 K, 7433 kPa, x2 = 0.7906	587.6 ± 0.7	–
423.23 K, 9708 kPa, x2 = 0.7906	592.4 ± 0.7	–
424.45 K, 5000 kPa, x2 = 0.7906	–	0.149 ± 0.005
424.45 K, 10000 kPa, x2 = 0.7906	–	0.16 ± 0.005
424.48 K, 4903 kPa, x2 = 0.5427	588.7 ± 0.7	–
424.48 K, 7108 kPa, x2 = 0.5427	592.8 ± 0.7	–
424.48 K, 9298 kPa, x2 = 0.5427	597.1 ± 0.7	–
424.55 K, 5000 kPa, x2 = 0.5427	–	0.158 ± 0.005
424.55 K, 10000 kPa, x2 = 0.5427	–	0.167 ± 0.006
429.34 K, 3511 kPa, x2 = 0.2808	585.6 ± 0.7	–
429.34 K, 8237 kPa, x2 = 0.2808	595.9 ± 0.7	–
429.34 K, 9630 kPa, x2 = 0.2808	598.7 ± 0.7	–
432.62 K, 5000 kPa, x2 = 0.2808	–	0.156 ± 0.005
432.62 K, 10000 kPa, x2 = 0.2808	–	0.168 ± 0.006
433.62 K, 5000 kPa, x2 = 0.5427	–	0.148 ± 0.005
433.62 K, 10000 kPa, x2 = 0.5427	–	0.158 ± 0.005
435.62 K, 5000 kPa, x2 = 0.7906	–	0.138 ± 0.005
435.62 K, 10000 kPa, x2 = 0.7906	–	0.149 ± 0.005
447.3 K, 4808 kPa, x2 = 0.5427	566 ± 0.7	–
447.3 K, 6304 kPa, x2 = 0.5427	569.6 ± 0.7	–
447.3 K, 9463 kPa, x2 = 0.5427	576.6 ± 0.7	–
451.28 K, 3900 kPa, x2 = 0.2808	565.6 ± 0.7	–
451.28 K, 5302 kPa, x2 = 0.2808	569 ± 0.7	–
451.28 K, 8131 kPa, x2 = 0.2808	576 ± 0.7	–
451.28 K, 9621 kPa, x2 = 0.2808	579.7 ± 0.7	–
452.73 K, 5000 kPa, x2 = 0.5427	–	0.129 ± 0.004
452.73 K, 10000 kPa, x2 = 0.5427	–	0.14 ± 0.005
455.3 K, 5000 kPa, x2 = 0.7906	–	0.12 ± 0.004
455.3 K, 10000 kPa, x2 = 0.7906	–	0.132 ± 0.004
455.63 K, 5000 kPa, x2 = 0.2808	–	0.133 ± 0.005
455.63 K, 10000 kPa, x2 = 0.2808	–	0.145 ± 0.005
463.18 K, 5000 kPa, x2 = 0.5427	–	0.12 ± 0.004
463.18 K, 10000 kPa, x2 = 0.5427	–	0.131 ± 0.004
466.55 K, 4570 kPa, x2 = 0.7906	535.1 ± 0.7	–
466.55 K, 7593 kPa, x2 = 0.7906	546.3 ± 0.7	–
466.55 K, 9885 kPa, x2 = 0.7906	553.4 ± 0.7	–
466.78 K, 3177 kPa, x2 = 0.5427	538.3 ± 0.7	–
466.78 K, 8649 kPa, x2 = 0.5427	556.8 ± 0.7	–
466.78 K, 9963 kPa, x2 = 0.5427	560.6 ± 0.7	–
472.52 K, 5000 kPa, x2 = 0.7906	–	0.107 ± 0.004
472.52 K, 10000 kPa, x2 = 0.7906	–	0.118 ± 0.004
473.1 K, 5000 kPa, x2 = 0.5427	–	0.112 ± 0.004
473.1 K, 10000 kPa, x2 = 0.5427	–	0.123 ± 0.004
473.46 K, 5000 kPa, x2 = 0.2808	–	0.118 ± 0.004
473.46 K, 10000 kPa, x2 = 0.2808	–	0.13 ± 0.004
475.85 K, 4354 kPa, x2 = 0.2808	539.5 ± 0.7	–
475.85 K, 8492 kPa, x2 = 0.2808	553.8 ± 0.7	–
475.85 K, 10120 kPa, x2 = 0.2808	558.1 ± 0.7	–
483.92 K, 4703 kPa, x2 = 0.5427	524.2 ± 0.6	–
483.92 K, 7131 kPa, x2 = 0.5427	533.5 ± 0.7	–
483.92 K, 9423 kPa, x2 = 0.5427	541.6 ± 0.7	–
494.74 K, 4250 kPa, x2 = 0.2808	515.8 ± 0.6	–
494.74 K, 6032 kPa, x2 = 0.2808	524.3 ± 0.6	–
494.74 K, 8734 kPa, x2 = 0.2808	535.5 ± 0.7	–
494.74 K, 9220 kPa, x2 = 0.2808	537.5 ± 0.7	–
505.34 K, 5217 kPa, x2 = 0.2808	507.7 ± 0.6	–
505.34 K, 8904 kPa, x2 = 0.2808	525.4 ± 0.6	–
505.34 K, 9807 kPa, x2 = 0.2808	528.4 ± 0.6	–
506 K, 5099 kPa, x2 = 0.7906	487.7 ± 0.6	–
506 K, 6982 kPa, x2 = 0.7906	499.4 ± 0.6	–
506 K, 8492 kPa, x2 = 0.7906	507.2 ± 0.6	–
506 K, 9669 kPa, x2 = 0.7906	512.6 ± 0.6	–
518.04 K, 4982 kPa, x2 = 0.5427	480.1 ± 0.6	–
518.04 K, 7512 kPa, x2 = 0.5427	496.2 ± 0.6	–
518.04 K, 8983 kPa, x2 = 0.5427	504.3 ± 0.6	–
525.5 K, 4771 kPa, x2 = 0.2808	475.8 ± 0.6	–
525.5 K, 5323 kPa, x2 = 0.2808	480.4 ± 0.6	–
525.5 K, 7331 kPa, x2 = 0.2808	494.9 ± 0.6	–
525.5 K, 9533 kPa, x2 = 0.2808	506.5 ± 0.6	–
536.57 K, 5021 kPa, x2 = 0.5427	449.5 ± 0.6	–
536.57 K, 6931 kPa, x2 = 0.5427	468.1 ± 0.6	–
536.57 K, 9621 kPa, x2 = 0.5427	486.1 ± 0.6	–
549.34 K, 5394 kPa, x2 = 0.5427	431.7 ± 0.5	–
549.34 K, 6766 kPa, x2 = 0.5427	449.2 ± 0.6	–
549.34 K, 8689 kPa, x2 = 0.5427	464.6 ± 0.6	–
549.34 K, 9708 kPa, x2 = 0.5427	471.9 ± 0.6	–
555.9 K, 4982 kPa, x2 = 0.7906	394.1 ± 0.5	–
555.9 K, 6198 kPa, x2 = 0.7906	416.1 ± 0.5	–
555.9 K, 8649 kPa, x2 = 0.7906	445.5 ± 0.6	–
555.9 K, 10240 kPa, x2 = 0.7906	458.1 ± 0.6	–
557.23 K, 5296 kPa, x2 = 0.2808	430.4 ± 0.5	–
557.23 K, 8238 kPa, x2 = 0.2808	461.5 ± 0.6	–
557.23 K, 9885 kPa, x2 = 0.2808	473.3 ± 0.6	–
557.23 K, 10790 kPa, x2 = 0.2808	479 ± 0.6	–
